Assay results taken from BindingDB's records for patent WO2025051920 (Sanofi-Aventis Deutschland, 2025).
Bridge positions count the residues as written; N and C are the ends. Square brackets hold non-standard residues; d marks the D form. Peptide text beside a SMILES is read from it. ξ: configuration not given here. Trp(1-Me) = Cn1cc(C[C@H](N)C(=O)O)c2ccccc21; 2Nal = N[C@@H](Cc1ccc2ccccc2c1)C(=O)O; ξThr(3R) = C[C@@H](O)C(N)C(=O)O; ξH = NC(Cc1c[nH]cn1)C(=O)O; Thp = NC1(C(=O)O)CCOCC1; ξD = NC(CC(=O)O)C(=O)O; ξOrn = NCCCC(N)C(=O)O; ξK = NCCCCC(N)C(=O)O

Molecular target: T1, Interleukin-23 subunit alpha/receptor (UniProt Q9NPF7+Q5VWK5)
T1 sequence (Q9NPF7 whole entry): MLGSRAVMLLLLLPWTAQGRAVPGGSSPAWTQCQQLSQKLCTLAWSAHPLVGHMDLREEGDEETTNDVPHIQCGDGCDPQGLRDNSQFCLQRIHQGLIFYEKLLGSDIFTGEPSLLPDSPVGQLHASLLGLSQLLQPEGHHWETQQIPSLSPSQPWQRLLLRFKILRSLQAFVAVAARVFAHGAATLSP
T1 sequence (Q5VWK5 whole entry): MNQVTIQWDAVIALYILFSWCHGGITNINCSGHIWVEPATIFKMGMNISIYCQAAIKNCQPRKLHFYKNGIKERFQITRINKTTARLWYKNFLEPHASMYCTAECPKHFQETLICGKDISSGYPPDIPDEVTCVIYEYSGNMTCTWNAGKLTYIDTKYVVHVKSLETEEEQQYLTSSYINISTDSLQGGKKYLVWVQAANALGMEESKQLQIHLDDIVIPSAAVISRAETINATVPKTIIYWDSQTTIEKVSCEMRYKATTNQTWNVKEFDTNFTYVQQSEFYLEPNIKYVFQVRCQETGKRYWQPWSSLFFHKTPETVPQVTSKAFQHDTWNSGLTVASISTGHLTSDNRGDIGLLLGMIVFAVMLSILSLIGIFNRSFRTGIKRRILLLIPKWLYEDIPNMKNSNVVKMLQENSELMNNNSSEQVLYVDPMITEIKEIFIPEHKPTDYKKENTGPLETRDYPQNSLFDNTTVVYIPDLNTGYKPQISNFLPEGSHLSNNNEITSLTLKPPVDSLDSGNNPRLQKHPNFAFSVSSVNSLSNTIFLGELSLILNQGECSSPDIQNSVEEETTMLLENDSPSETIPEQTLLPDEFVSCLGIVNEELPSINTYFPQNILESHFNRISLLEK
Test: ELISA assay for specific human IL-23R inhibitors
Experimental: (§1) A 384-well plate was coated with 50 µl/well of human IL-23 at a final concentration of […] and incubated overnight at 4°C. The wells were washed 3 times with […] wash buffer and blocked with […] blocking buffer for 60 minutes at room temperature and washed again. 20 µl of serially diluted test peptides was added to each well and subsequently 20 µl of recombinant human IL-23R-Fc chimera at final concentration of […]. The plate was incubated for 60 minutes at room temperature. After the wells were washed, bound IL-23R-Fc was detected with goat anti-hu- IgG 1 -HRP antibody. Signals were visualized with QuantaBlu Fluorogenic Peroxidase Substrate.

IC50	SMILES
1.55 nM	COc1ccc(C[C@@H]2NC(=O)[C@H](CCCNC(=N)N)NC(=O)[C@H](CCC(N)=O)NC(=O)[C@H](Cc3c[nH]c4ccccc34)NC(=O)C([C@@H](C)O)NC(=O)[C@H](CC(N)=O)NC(=O)[C@H](NC(C)=O)CCCCNC(=O)C[C@H](C(=O)N[C@@H](CC(N)=O)C(=O)N[C@@H](CC(N)=O)C(=O)O)NC(=O)C(C)(C)NC(=O)[C@H](Cc3ccc4ccccc4c3)NC2=O)cc1 (stereo partly drawn) [WO2025051920, Example 3]
1.95 nM	COc1ccc(C[C@@H]2NC(=O)[C@H](CCCNC(=N)N)NC(=O)[C@H](CCC(N)=O)NC(=O)[C@H](Cc3c[nH]c4ccccc34)NC(=O)C([C@@H](C)O)NC(=O)[C@H](CC(N)=O)NC(=O)[C@H](NC(C)=O)CCCCNC(=O)CC[C@H](C(=O)N[C@@H](CC(N)=O)C(=O)N[C@@H](CC(N)=O)C(=O)O)NC(=O)C(C)(C)NC(=O)[C@H](Cc3ccc4ccccc4c3)NC2=O)cc1 (stereo partly drawn) [WO2025051920, Example 5]
3.55 nM	COc1ccc(C[C@@H]2NC(=O)[C@H](CCCNC(=N)N)NC(=O)[C@H](CCC(N)=O)NC(=O)[C@H](Cc3c[nH]c4ccccc34)NC(=O)C([C@@H](C)O)NC(=O)[C@H](CC(N)=O)NC(=O)C(NC(C)=O)CCCCNC(=O)C[C@H](C(=O)N[C@@H](CC(N)=O)C(=O)N[C@@H](CC(N)=O)C(=O)O)NC(=O)C(C)(C)NC(=O)[C@H](Cc3cccc4ccccc34)NC2=O)cc1 (stereo partly drawn) [WO2025051920, Example 9]
1.04 nM	COc1ccc(C[C@@H]2NC(=O)[C@H](CCCNC(=N)N)NC(=O)[C@H](CCC(N)=O)NC(=O)[C@H](Cc3c[nH]c4ccccc34)NC(=O)C([C@@H](C)O)NC(=O)[C@H](CC(N)=O)NC(=O)C(NC(C)=O)CCCCNC(=O)C[C@H](C(=O)N[C@@H](CC(N)=O)C(=O)N[C@@H](CC(N)=O)C(=O)O)NC(=O)C(C)(C)NC(=O)[C@H](Cc3ccc4ccccc4c3)NC2=O)cc1 (stereo partly drawn) [WO2025051920, Example 15]
12 nM	COc1ccc(C[C@@H]2NC(=O)[C@H](CCCNC(=N)N)NC(=O)[C@H](CCC(N)=O)NC(=O)[C@H](Cc3cn(C)c4ccccc34)NC(=O)[C@H]([C@@H](C)O)NC(=O)[C@H](CC(N)=O)NC(=O)[C@H](NC(C)=O)CCCCNC(=O)C[C@@H](C(=O)N[C@@H](CC(N)=O)C(=O)N[C@@H](CC(N)=O)C(=O)O)NC(=O)[C@H](CC(C)C)NC(=O)[C@H](Cc3cccc4ccccc34)NC2=O)cc1 [WO2025051920, Example 23]

Molecular target: Interleukin-23 subunit alpha/receptor (UniProt Q5VWK5)
Test: ELISA assay for specific human IL-23R inhibitors
Experimental: as §1

IC50	SMILES
3.57 nM	COc1ccc(C[C@@H]2NC(=O)[C@H](CCCNC(=N)N)NC(=O)[C@H](CCC(N)=O)NC(=O)[C@H](Cc3cn(C)c4ccccc34)NC(=O)[C@H]([C@@H](C)O)NC(=O)[C@H](CC(N)=O)NC(=O)[C@@H](NC(C)=O)CC(=O)NCCCC(C(=O)N[C@@H](CC(N)=O)C(=O)N[C@@H](CC(N)=O)C(=O)O)NC(=O)[C@H](CC(C)C)NC(=O)[C@H](Cc3ccc4ccccc4c3)NC2=O)cc1 (stereo partly drawn) [WO2025051920, Example 37] (Ac-DNT[Trp(1-Me)]QRY(Me)[2Nal]L[ξOrn]NN-OH; lactam 1-10)
1.46 nM	COc1ccc(C[C@@H]2NC(=O)[C@H](CCNC(=N)N)NC(=O)[C@H](CCC(N)=O)NC(=O)[C@H](Cc3c[nH]c4ccccc34)NC(=O)[C@H]([C@@H](C)O)NC(=O)[C@H](CC(N)=O)NC(=O)[C@H](NC(C)=O)CCCCNC(=O)C[C@@H](C(=O)N[C@@H](CC(N)=O)C(=O)N[C@@H](CC(N)=O)C(=O)O)NC(=O)C(C)(C)NC(=O)[C@H](Cc3ccc4ccccc4c3)NC2=O)cc1 [WO2025051920, Example 39]
3.11 nM	COc1ccc(C[C@@H]2NC(=O)[C@H](CCNC(=N)N)NC(=O)[C@H](CCC(N)=O)NC(=O)[C@H](Cc3c[nH]c4ccccc34)NC(=O)C([C@@H](C)O)NC(=O)[C@H](CC(N)=O)NC(=O)C(N)CCCCCNC(=O)CC[C@H](C(=O)N[C@@H](CC(N)=O)C(=O)N[C@@H](CC(N)=O)C(=O)O)NC(=O)C(C)(C)NC(=O)[C@H](Cc3ccc4ccccc4c3)NC2=O)cc1 (stereo partly drawn) [WO2025051920, Example 40]
1.47 nM	COc1ccc(C[C@@H]2NC(=O)[C@H](CCCNC(=N)N)NC(=O)[C@H](CCC(N)=O)NC(=O)[C@H](Cc3c[nH]c4ccccc34)NC(=O)C([C@@H](C)O)NC(=O)[C@H](CC(N)=O)NC(=O)C(NC(C)=O)CCCCNC(=O)CC(C(=O)N[C@@H](CC(N)=O)C(=O)N[C@@H](CC(N)=O)C(=O)O)NC(=O)C3(CCOCC3)NC(=O)[C@H](Cc3ccc4ccccc4c3)NC2=O)cc1 (stereo partly drawn) [WO2025051920, Example 41] (Ac-[ξK]N[ξThr(3R)]WQRY(Me)[2Nal][Thp][ξD]NN-OH; lactam 1-10)
18.1 nM	COc1ccc(C[C@@H]2NC(=O)[C@H](CCCNC(=N)N)NC(=O)[C@H](CCC(N)=O)NC(=O)[C@H](Cc3c[nH]c4ccccc34)NC(=O)C(Cc3c[nH]cn3)NC(=O)[C@H](CC(N)=O)NC(=O)C(NC(C)=O)CCCCNC(=O)CC(C(=O)N[C@@H](CC(N)=O)C(=O)N[C@@H](CC(N)=O)C(=O)O)NC(=O)C3(CCOCC3)NC(=O)[C@H](Cc3ccc4ccccc4c3)NC2=O)cc1 (stereo partly drawn) [WO2025051920, Example 42] (Ac-[ξK]N[ξH]WQRY(Me)[2Nal][Thp][ξD]NN-OH; lactam 1-10)
1.44 nM	COc1ccc(C[C@@H]2NC(=O)[C@H](C)NC(=O)[C@H](CCC(N)=O)NC(=O)[C@H](Cc3c[nH]c4ccccc34)NC(=O)C([C@@H](C)O)NC(=O)[C@H](CC(N)=O)NC(=O)C(N)CCCCCNC(=O)C[C@H](C(=O)N[C@@H](CC(N)=O)C(=O)N[C@@H](CC(N)=O)C(=O)O)NC(=O)C(C)(C)NC(=O)[C@H](Cc3ccc4ccccc4c3)NC2=O)cc1 (stereo partly drawn) [WO2025051920, Example 43]
0.96 nM	COc1ccc(C[C@@H]2NC(=O)[C@H](C)NC(=O)[C@H](CCC(N)=O)NC(=O)[C@H](Cc3c[nH]c4ccccc34)NC(=O)[C@H]([C@@H](C)O)NC(=O)[C@H](CCCNC(=N)N)NC(=O)[C@H](NC(C)=O)CCCCNC(=O)C[C@@H](C(=O)N[C@@H](CC(N)=O)C(=O)N[C@@H](CC(N)=O)C(=O)O)NC(=O)C(C)(C)NC(=O)[C@H](Cc3ccc4ccccc4c3)NC2=O)cc1 [WO2025051920, Example 45]
1.38 nM	COc1ccc(C[C@@H]2NC(=O)[C@H](C)NC(=O)[C@H](CCC(N)=O)NC(=O)[C@H](Cc3c[nH]c4ccccc34)NC(=O)[C@H](CCCNC(=N)N)NC(=O)[C@H](CC(N)=O)NC(=O)[C@H](NC(C)=O)CCCCNC(=O)C[C@@H](C(=O)N[C@@H](CC(N)=O)C(=O)N[C@@H](CC(N)=O)C(=O)O)NC(=O)C(C)(C)NC(=O)[C@H](Cc3ccc4ccccc4c3)NC2=O)cc1 [WO2025051920, Example 46]
1.34 nM	COc1ccc(C[C@@H]2NC(=O)[C@H](C)NC(=O)[C@H](CCC(N)=O)NC(=O)[C@H](Cc3c[nH]c4ccccc34)NC(=O)[C@H]([C@@H](C)O)NC(=O)[C@H](CC(N)=O)NC(=O)[C@H](NC(C)=O)CCCCNC(=O)C[C@@H](C(=O)N[C@@H](CC(N)=O)C(=O)N[C@@H](CC(N)=O)C(=O)O)NC(=O)[C@H](CCCNC(=N)N)NC(=O)[C@H](Cc3ccc4ccccc4c3)NC2=O)cc1 [WO2025051920, Example 47]
2.06 nM	COc1ccc(C[C@@H]2NC(=O)[C@H](C)NC(=O)[C@H](CCC(N)=O)NC(=O)[C@H](Cc3c[nH]c4ccccc34)NC(=O)[C@H]([C@@H](C)O)NC(=O)[C@H](CC(N)=O)NC(=O)[C@H](NC(C)=O)CCCCNC(=O)C[C@@H](C(=O)N[C@@H](CC(N)=O)C(=O)N[C@@H](C)C(=O)O)NC(=O)C(C)(C)NC(=O)[C@H](Cc3ccc4ccccc4c3)NC2=O)cc1 [WO2025051920, Example 48]
3.13 nM	COc1ccc(C[C@@H]2NC(=O)[C@H](C)NC(=O)[C@H](CCC(N)=O)NC(=O)[C@H](Cc3c[nH]c4ccccc34)NC(=O)[C@H]([C@@H](C)O)NC(=O)[C@H](CC(N)=O)NC(=O)[C@H](NC(C)=O)CCCCNC(=O)C[C@@H](C(=O)N[C@@H](C)C(=O)N[C@@H](CC(N)=O)C(=O)O)NC(=O)C(C)(C)NC(=O)[C@H](Cc3ccc4ccccc4c3)NC2=O)cc1 [WO2025051920, Example 49]
8.29 nM	COc1ccc(C[C@@H]2NC(=O)[C@H](C)NC(=O)[C@H](CCC(N)=O)NC(=O)[C@H](Cc3c[nH]c4ccccc34)NC(=O)[C@H]([C@@H](C)O)NC(=O)[C@H](CC(N)=O)NC(=O)[C@H](NC(C)=O)CCCCNC(=O)C[C@@H](C(=O)N[C@@H](C)C(=O)N[C@@H](C)C(=O)O)NC(=O)C(C)(C)NC(=O)[C@H](Cc3ccc4ccccc4c3)NC2=O)cc1 [WO2025051920, Example 50]
0.78 nM	COc1ccc(C[C@@H]2NC(=O)[C@H](C)NC(=O)[C@H](CCC(N)=O)NC(=O)[C@H](Cc3c[nH]c4ccccc34)NC(=O)[C@H]([C@@H](C)O)NC(=O)[C@H](CC(N)=O)NC(=O)[C@H](NC(C)=O)CCCCNC(=O)C[C@@H](C(=O)N[C@@H](CC(N)=O)C(=O)N[C@@H](CC(N)=O)C(N)=O)NC(=O)C3(CCOCC3)NC(=O)[C@H](Cc3ccc4ccccc4c3)NC2=O)cc1 [WO2025051920, Example 51] (Ac-[dK]NTWQAY(Me)[2Nal][Thp]DNN-NH2; lactam 1-10)
